Series [1] relates to HCV. Kind of series: anti-HCV activity. The conditions noted are these: Hepatitis C virus, read-out: EC50, anti-HCV activity. The class given is cell-based.
Series [2] has as its system HIV. Briefly: anti-HIV activity, cellular assay. It counts as cell-based, human immunodeficiency virus 1 (HIV). Conditions: for EC50: Human immunodeficiency virus 1, MT2, read-out: EC50, anti-HIV activity; for antiviral activity: in words.
Series [3] deals with MT-2. Kind of series: cytotoxicity. It counts as cell-based, human. Conditions: MT-2 cellular assay.
Series [4] relates to herpes simplex virus-1 (HSV-1). Kind of series: effect on replication of HSV-1. The class given is cell-based.
Series [5] has as its system hepatitis B virus (HBV). Briefly: effect on replication of HBV. The class given is cell-based.
Series [6] concerns HSV-2. Kind of series: effect on replication of HSV-2. The class given is cell-based.

The structures appear in SMILES notation.

By EC50 is commonly meant the concentration giving half of the maximal effect. For the molecule `O=C(O)c1cc(NC(=O)c2cc3c(O)c(c2)Cc2cc(C(=O)Nc4cc(C(=O)O)cc(C(=O)O)c4)cc(c2O)Cc2cc(C(=O)Nc4cc(C(=O)O)cc(C(=O)O)c4)cc(c2O)Cc2cc(C(=O)Nc4cc(C(=O)O)cc(C(=O)O)c4)cc(c2O)C3)cc(C(=O)O)c1` [Compound 9], the EC50 in series [1] is > 50 µM; in series [2] it was 6.7 µM.
With `CCCCOc1c2cc(C(=O)Nc3cc(C(=O)O)cc(C(=O)OCc4ccccc4)c3)cc1Cc1cc(C(=O)Nc3cc(C(=O)O)cc(C(=O)OCc4ccccc4)c3)cc(c1OCCCC)Cc1cc(C(=O)Nc3cc(C(=O)O)cc(C(=O)OCc4ccccc4)c3)cc(c1OCCCC)Cc1cc(C(=O)Nc3cc(C(=O)O)cc(C(=O)OCc4ccccc4)c3)cc(c1OCCCC)C2` [Compound 1], the antiviral activity entry in series [2] is listed as “little to no antiviral activity”.
Consider `O=C(O)c1cc(NC(=O)c2cc3c(OCc4ccccc4)c(c2)Cc2cc(C(=O)Nc4cc(C(=O)O)cc(C(=O)O)c4)cc(c2OCc2ccccc2)Cc2cc(C(=O)Nc4cc(C(=O)O)cc(C(=O)O)c4)cc(c2OCc2ccccc2)Cc2cc(C(=O)Nc4cc(C(=O)O)cc(C(=O)O)c4)cc(c2OCc2ccccc2)C3)cc(C(=O)O)c1` [Compound 11], for which, in series [3], the “ID50 (toxicity)” value is given as 18 µM. For the same molecule, the EC50 in series [1] amounted to 1.4 µM; in series [2] it was 0.3 µM.
In the case of `CCCCOc1c2cc(C(=O)Nc3cc(C(=O)O)cc(C(=O)O)c3)cc1Cc1cc(C(=O)Nc3cc(C(=O)O)cc(C(=O)O)c3)cc(c1OCCCC)Cc1cc(C(=O)Nc3cc(C(=O)O)cc(C(=O)O)c3)cc(c1OCCCC)Cc1cc(C(=O)Nc3cc(C(=O)O)cc(C(=O)O)c3)cc(c1OCCCC)C2` [Compound 2], the “effect on the replication of HSV-1” value in series [4] is given as “no effect”. In addition, the EC50 in series [1] amounted to 1.8 µM; in series [2], 0.3 µM. In series [2] (HIV-IIIB, NL-43, LaiM184V), the “potency against different laboratory HIV strains” value was “equally potent”. Moreover, in series [2] (MT-2, CEMx174, TZM-bl), the “antiviral activity in different cell lines” value is reported as “antiviral activity was retained in all these cell lines”. Further, in series [5], the “effect on the replication of HBV” value is “no effect”. Besides, the “effect on the replication of HSV-2” value in series [6] is on record as “no effect”.
For `CCCCOc1c2cc(C(=O)NCCN)cc1Cc1cc(C(=O)NCCN)cc(c1OCCCC)Cc1cc(C(=O)NCCN)cc(c1OCCCC)Cc1cc(C(=O)NCCN)cc(c1OCCCC)C2` [Compound 7], the antiviral activity entry in series [2] was “lack of antiviral activity”.
Take `CCCCOc1c2cc(C(=O)Nc3cc(C(=O)O)cc(C(=O)NC4CCCCC4)c3)cc1Cc1cc(C(=O)Nc3cc(C(=O)O)cc(C(=O)NC4CCCCC4)c3)cc(c1OCCCC)Cc1cc(C(=O)Nc3cc(C(=O)O)cc(C(=O)NC4CCCCC4)c3)cc(c1OCCCC)Cc1cc(C(=O)Nc3cc(C(=O)O)cc(C(=O)NC4CCCCC4)c3)cc(c1OCCCC)C2` [Compound 3]: the antiviral activity entry in series [2] was “little to no antiviral activity”.

For the origin of these results see paper PMC2849157 (Bioorganic & medicinal chemistry letters, 2010).
